Key:
p53 Y220C = p53 Y220C (Homo sapiens, UniProt P04637, Y220C); experiment: Luciferase Reporter Assay (Luc), p53 response element, NClH1299 cells with inducible p53 Y220C; assay type: cell-based; conditions: luciferase reporter, NClH1299 inducible p53 Y220C, 6 hour; for Emax: 10 uM tool compound as positive control; for AC50: read-out: Luc P53 Y220C AC50
Outline: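 H1299 cells induced with 0.5 ug/mL doxycycline for 24 hours, then exposed to compound for 6 hours. p53 response-element luciferase read by One-Glo luminescence after 5 min shaking at room temperature.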

[1] = target: T1, p53 Y220C mutant protein (amino acid residues 94-293) (Homo sapiens, UniProt P04637, Y220C); experiment: Thermal Shift Assay (TSA), dTM; assay type: binding; conditions: thermal shift; for ΔTm at 10 µM: 10 uM compound, read-out: TSA P53 Y220C dTM (10 uM); for ΔTm at 100 µM: 100 uM compound, read-out: TSA P53 Y220C dTM (100 uM)
T1 construct: p53 Y220C mutant protein (amino acid residues 94-293)
Outline: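 5 μM p53 Y220C (residues 94-293) incubated 3 h at 20 °C with 10 μM or 100 μM compound in 20 mM HEPES pH 7.4, 100 mM NaCl, 0.01% Pluronic F-127, 1% DMSO plus Sypro Orange. Melt from 30 to 50 °C at 0.03 °C/s; TM from Boltzmann two-state fit.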

NUGC3 p53 Y220C = experiment: Cell Proliferation Assay (CellTiter-Glo, CTG), NUGC3 p53 Y220C; assay type: cell-based; conditions: Homo sapiens, NUGC-3, 120 h, CellTiter-Glo, NUGC3 p53 Y220C, 5 days
Outline: (§1)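 NClH1299 lines stably transduced with Tet-inducible p53 Y220C or R273H, plus NUGC3, were treated with compound for 5 days at 250-500 cells/well. IC50 derived from CellTiter-Glo luminescent signal after 10 min room-temperature incubation.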

H1299 p53 Y220C = experiment: Cell Proliferation Assay (CellTiter-Glo, CTG), H1299 p53 Y220C (NClH1299-inducible p53 Y220C); assay type: cell-based; conditions: Homo sapiens, NCI-H1299, 120 h, CellTiter-Glo, H1299 p53 Y220C, 5 days
Outline: as §1

H1299 p53 R273H = experiment: Cell Proliferation Assay (CellTiter-Glo, CTG), H1299 p53 R273H (NClH1299-inducible p53 R273H); assay type: cell-based; conditions: Homo sapiens, NCI-H1299, 120 h, CellTiter-Glo, H1299 p53 R273H, 5 days
Outline: as §1

[2] = target: T1, p53 Y220C mutant protein (amino acid residues 94-293); experiment: Surface Plasmon Resonance (SPR) assay, Kd_kinetic; assay type: binding; conditions: SPR, kinetic KD, p53 Y220C; read-out: SPR P53 Y220C KD kinetic
Outline: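 Temperature held at 16 or 20 °C during Biacore 8K runs. Buffer: 50 mM Tris, pH 7.5, 100 mM NaCl, 1 mM DTT, 0.01% Brij35, 0.05% Tween-20, 1% DMSO.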

Compound | Emax (p53 Y220C) | AC50 (p53 Y220C) | ΔTm at 10 µM [1] | ΔTm at 100 µM [1] | IC50 (H1299 p53 Y220C) | IC50 (H1299 p53 R273H) | Kd [2] | IC50 (NUGC3 p53 Y220C)
CNC(=O)c1ccc(NCC#Cc2nc3c(N[C@@H]4CCN(C)C[C@@H]4F)cccn3c2C(F)(F)F)c(OC)c1 [Example 97, 4-{[3-(8-{[(3S,4R)-3-fluoro-1-methylpiperidin-4-yl]amino}-3-(trifluoromethyl)imidazo [1,2-a]pyridin-2-yl)prop-2-yn-1-yl]amino}-3-methoxy-N-methylbenzamide] | < 70% | > 3 µM | – | 5 to 10 °C | > 3 µM | ≥ 10 µM | 0.1 to 1 µM | > 3 µM
CNC(=O)c1ccc(NCC#Cc2nc3c(N[C@@H]4CN(C)C[C@@H]4F)cccn3c2SC(F)(F)F)c(OC)c1 [Example 103, 4-{[3-(8-{[(3R,4S)-4-fluoro-1-methylpyrrolidin-3-yl]amino}-3-[(trifluoromethyl)sulfanyl]imidazo[1,2-a]pyridin-2-yl)prop-2-yn-1-yl]amino}-3-methoxy-N-methylbenzamide] | 80 to 90% | < 0.75 µM | ≥ 10 °C | ≥ 10 °C | < 0.75 µM | ≥ 10 µM | < 0.01 µM | < 0.75 µM
CNC(=O)c1ccc(NCC#Cc2nc3c(N[C@@H]4CCN(C)C[C@@H]4F)cccn3c2SC(F)(F)F)c(OCCOC)c1 [Example 104, 4-{[3-(8-{[(3S,4R)-3-fluoro-1-methylpiperidin-4-yl]amino}-3-[(trifluoromethyl)sulfanyl]imidazo[1,2-a]pyridin-2-yl)prop-2-yn-1-yl]amino}-3-(2-methoxyethoxy)-N-methylbenzamide] | 80 to 90% | < 0.75 µM | ≥ 10 °C | ≥ 10 °C | < 0.75 µM | 8 to 10 µM | < 0.01 µM | < 0.75 µM
CNC(=O)c1ccc(NCC#Cc2nc3c(N[C@@H]4CCN(C)C[C@@H]4F)cccn3c2SC(F)(F)F)c(OC(F)F)c1 [Example 105, 3-(difluoromethoxy)-4-{[3-(8-{[(3S,4R)-3-fluoro-1-methylpiperidin-4-yl]amino}-3-[(trifluoromethyl)sulfanyl]imidazo[1,2-a]pyridin-2-yl)prop-2-yn-1-yl]amino}-N-methylbenzamide] | 80 to 90% | < 0.75 µM | ≥ 10 °C | ≥ 10 °C | < 0.75 µM | 8 to 10 µM | < 0.01 µM | < 0.75 µM
CNC(=O)c1ccc(NCC#Cc2nc3c(N[C@@H]4CCN(C)C[C@@H]4F)cccn3c2SC(F)F)c(OC)c1 [Example 106, 4-[(3-{3-[(difluoromethyl)sulfanyl]-8-{[(3S,4R)-3-fluoro-1-methylpiperidin-4-yl]amino}imidazo[1,2-a]pyridin-2-yl}prop-2-yn-1-yl)amino]-3-methoxy-N-methylbenzamide] | 70 to 80% | < 0.75 µM | 5 to 10 °C | ≥ 10 °C | < 0.75 µM | ≥ 10 µM | < 0.01 µM | < 0.75 µM
CNC(=O)c1ccc(OC)c(NCC#Cc2nc3c(N[C@@H]4CCN(C)C[C@@H]4F)cccn3c2SC(F)(F)F)c1 [Example 107, 3-{[3-(8-{[(3S,4R)-3-fluoro-1-methylpiperidin-4-yl]amino}-3-[(trifluoromethyl)sulfanyl]imidazo[1,2-a]pyridin-2-yl)prop-2-yn-1-yl]amino}-4-methoxy-N-methylbenzamide] | 80 to 90% | < 0.75 µM | ≥ 10 °C | ≥ 10 °C | < 0.75 µM | < 5 µM | < 0.01 µM | < 0.75 µM
CCNC(=O)c1ccc(OC)c(NCC#Cc2nc3c(N[C@@H]4CCN(C)C[C@@H]4F)cccn3c2SC(F)(F)F)c1 [Example 108, N-ethyl-3-{[3-(8-{[(3S,4R)-3-fluoro-1-methylpiperidin-4-yl]amino}-3-[(trifluoromethyl)sulfanyl]imidazo[1,2-a]pyridin-2-yl)prop-2-yn-1-yl]amino}-4-methoxybenzamide] | 80 to 90% | < 0.75 µM | ≥ 10 °C | ≥ 10 °C | < 0.75 µM | 8 to 10 µM | < 0.01 µM | < 0.75 µM
COc1ccc(C(=O)NC2CC2)cc1NCC#Cc1nc2c(N[C@@H]3CCN(C)C[C@@H]3F)cccn2c1SC(F)(F)F [Example 109, N-cyclopropyl-3-{[3-(8-{[(3S,4R)-3-fluoro-1-methylpiperidin-4-yl]amino}-3-[(trifluoromethyl)sulfanyl]imidazo[1,2-a]pyridin-2-yl)prop-2-yn-1-yl]amino}-4-methoxybenzamide] | 80 to 90% | < 0.75 µM | ≥ 10 °C | ≥ 10 °C | < 0.75 µM | 8 to 10 µM | < 0.01 µM | < 0.75 µM
COc1cc2c(cc1NCC#Cc1nc3c(N[C@@H]4CCN(C)C[C@@H]4F)cccn3c1CC(F)(F)F)CCNC2=O [Example 110, 6-{[3-(8-{[(3S,4R)-3-fluoro-1-methylpiperidin-4-yl]amino}-3-(2,2,2-trifluoroethyl)imidazo[1,2-a]pyridin-2-yl)prop-2-yn-1-yl]amino}-7-methoxy-3,4-dihydro-2H-isoquinolin-1-one] | 80 to 90% | < 0.75 µM | – | ≥ 10 °C | < 0.75 µM | 5 to 8 µM | < 0.01 µM | < 0.75 µM

Continued, in another order:

Emax (p53 Y220C) | AC50 (p53 Y220C) | ΔTm at 10 µM [1] | ΔTm at 100 µM [1] | IC50 (H1299 p53 Y220C) | IC50 (H1299 p53 R273H) | Kd [2] | Compound | IC50 (NUGC3 p53 Y220C)
> 90% | < 0.75 µM | ≥ 10 °C | ≥ 10 °C | < 0.75 µM | ≥ 10 µM | < 0.01 µM | CNC(=O)c1ccc(NCC#Cc2nc3c(N[C@@H]4CCN(C)C[C@@H]4F)cccn3c2SC(F)(F)F)cn1 [Example 94, 5-{[3-(8-{[(3S,4R)-3-fluoro-1-methylpiperidin-4-yl]amino}-3-[(trifluoromethyl)sulfanyl]imidazo[1,2-a]pyridin-2-yl)prop-2-yn-1-yl]amino}-N-methylpyridine-2-carboxamide] | < 0.75 µM
80 to 90% | < 0.75 µM | ≥ 10 °C | ≥ 10 °C | < 0.75 µM | 5 to 8 µM | < 0.01 µM | COc1cc2c(cc1NCC#Cc1nc3c(N[C@@H]4CCN(C)C[C@@H]4F)cccn3c1SC(F)(F)F)CNC2=O [Example 96, 5-{[3-(8-{[(3S,4R)-3-fluoro-1-methylpiperidin-4-yl]amino}-3-[(trifluoromethyl)sulfanyl]imidazo[1,2-a]pyridin-2-yl)prop-2-yn-1-yl]amino}-6-methoxy-2,3-dihydroisoindol-1-one] | < 0.75 µM
80 to 90% | < 0.75 µM | ≥ 10 °C | ≥ 10 °C | < 0.75 µM | 5 to 8 µM | < 0.01 µM | CNC(=O)c1ccc(NCC#Cc2nc3c(N[C@@H]4CCNC[C@@H]4F)cccn3c2SC(F)(F)F)c(OC)c1 [Example 100, 4-{[3-(8-{[(3S,4R)-3-fluoropiperidin-4-yl]amino}-3-[(trifluoromethyl)sulfanyl]imidazo[1,2-a]pyridin-2-yl)prop-2-yn-1-yl]amino}-3-methoxy-N-methylbenzamide] | < 0.75 µM
80 to 90% | < 0.75 µM | 5 to 10 °C | ≥ 10 °C | < 0.75 µM | ≥ 10 µM | < 0.01 µM | CNC(=O)c1ccc(NCC#Cc2nc3c(N[C@@H]4CCOC[C@@H]4F)cccn3c2SC(F)(F)F)c(OC)c1 [Example 101, 4-{[3-(8-{[(3R,4R)-3-fluorooxan-4-yl]amino}-3-[(trifluoromethyl)sulfanyl]imidazo[1,2-a]pyridin-2-yl)prop-2-yn-1-yl]amino}-3-methoxy-N-methylbenzamide] | < 0.75 µM
70 to 80% | < 0.75 µM | ≥ 10 °C | ≥ 10 °C | < 0.75 µM | ≥ 10 µM | < 0.01 µM | CNC(=O)c1ccc(NCC#Cc2nc3c(N[C@@H]4CNC[C@@H]4F)cccn3c2SC(F)(F)F)c(OC)c1 [Example 102, 4-{[3-(8-{[(3R,4S)-4-fluoropyrrolidin-3-yl]amino}-3-[(trifluoromethyl)sulfanyl]imidazo[1,2-a]pyridin-2-yl)prop-2-yn-1-yl]amino}-3-methoxy-N-methylbenzamide] | < 0.75 µM
